Test results reported in patent US20120277187A1, “Agent for Preventing Infection” (priority 2006, published 2012).
“Also recorded” adds a separate entry of the source.

Legend:
Format in all cases: in vivo, mouse (Balb/c)
[1] = system: A/Guizhou virus (type A influenza virus); test: Transnasal sphingomyelin with simultaneous type A influenza virus infection in mice (nasal cavity wash virus titer, plaque method with MDCK cell)
Protocol: (§1) (Verification of the Effect to Prevent Infection with Type A Influenza Virus and Type B Influenza Virus)
(§2) Mice (Balb/c, male, 6 weeks of age) were transnasally infected with A/Guinzhou virus as the type A influenza virus or B/Ibaraki virus as the type B influenza virus, and at the same time, a 100 μg/ml solution of the sphingomyelin (SPM) obtained in Example 1 was transnasally administered at a dose of 5 μl/nasal cavity dose (dose: 0.5 μg), and the preventive effect on the infection with an influenza virus was judged by the virus titer in the nasal cavity washes. In this connection, groups transnasally infected with respective influenza viruses alone were prepared. A plaque method which uses MDCK cell was used in the judgment.

[2] = system: B/Ibaraki virus (type B influenza virus); test: Transnasal sphingomyelin with simultaneous type B influenza virus infection in mice (nasal cavity wash virus titer, plaque method with MDCK cell)
Protocol: as §1, §2

[3] = system: influenza virus PR 8 (H1N1); test: Oral administration of sphingomyelin, prevention of influenza virus infection in mice (nasal cavity wash virus titer, plaque method with MDCK cell); settings: for Nasal cavity virus titer x (PFU/ml: 10^x): 1×10^3 pfu PR 8 (H1N1), nasal cavity washes 3 days after infection
Description: (Verification of the Effect of Oral Administration of Sphingomyelin on the Prevention of Infection with an Influenza Virus)
A mouse (Balb/c, male, 6 weeks of age) was infected with 1×10^3 pfu in viral quantity of influenza virus PR 8 (H1N1). Before the infection treatment, sphingomyelin was orally administered, and its infection preventive effect was judged by the virus titer in the nasal cavity washes 3 days after the virus infection. In carrying out the oral administration, sphingomyelin was used by dispersing in water. A plaque method which uses MDCK cell was used in the judgment.
This indicates the effect of sphingomyelin to prevent infection with an influenza virus.

sphingomyelin [SPM]
Nasal cavity virus titer ([1]; A/Guizhou virus, transnasal 100 μg/ml, 5 μl/nasal cavity (dose 0.5 μg) at the same time as infection): 1.99 ± 0.31
Infection preventive effect (in words) ([1]; type A influenza virus, transnasal administration): confirmed; also recorded: more considerable effect
Nasal cavity virus titer ([2]; B/Ibaraki virus, transnasal 100 μg/ml, 5 μl/nasal cavity (dose 0.5 μg) at the same time as infection): 2.73 ± 0.06
Infection preventive effect (in words) ([2]; type B influenza virus, transnasal administration): confirmed
Nasal cavity virus titer x (PFU/ml: 10^x) ([3]; 1 mg oral before infection): 2.23 ± 0.16 PFU/ml: 10^x
Nasal cavity virus titer x (PFU/ml: 10^x) ([3]; 10 mg oral before infection): 2.15 ± 0.29 PFU/ml: 10^x
Nasal cavity virus titer in administration group (in words) ([3]; oral administration group versus control (no administration)): lowered with significance
